Data on 3 molecules can be found in patent US4791118A, “Quinolonecarboxylic acid derivatives and their preparation” (Kyorin Pharmaceutical Co., Ltd., priority 1985, dated 1988).

In brackets after ≈: the same amount, converted by molar mass. Like-named read-outs stand apart in the source and are kept apart here.

Test [1] concerns Acinetobacter anitratus IID 876. Put plainly: MIC, aerobic bacteria. The settings on record: Acinetobacter calcoaceticus, IID876, Gram -, 10^6 cells/ml. The test is classed as cell-based. An excerpt:
(§1) | Organism (10^6 cells/ml)

Test [2] relates to Citrobacter freundii IID 976. Put plainly: MIC, aerobic bacteria. The test is classed as cell-based. The following applies: IID976, Gram -, 10^6 cells/ml.
Source text: as §1

The test system of a further test is E. coli ATCC 10536. Put plainly: MIC, aerobic bacteria. The test is classed as cell-based. The settings on record: Escherichia coli, ATCC10536, Gram -, 10^6 cells/ml.
Source text: as §1

In test [3] the test system is Escherichia coli NIHJ JC-2. Briefly: MIC, aerobic bacteria. The test is classed as cell-based. The settings on record: NIHJJC2, Gram -, 10^6 cells/ml.
Source text: as §1

For test [4], the system named is Klebsiella pneumoniae KY(GN)6445. Put plainly: MIC, aerobic bacteria. The settings on record: Gram -, 10^6 cells/ml. The test is classed as cell-based.
Source text: as §1

In test [5] the test system is Morganella morganii IID 602. Briefly: MIC, aerobic bacteria. The format is cell-based. The following applies: IID602, Gram -, 10^6 cells/ml.
Source text: as §1

For a further test, the system named is P. mirabilis IID 992. Put plainly: MIC, aerobic bacteria. The test is classed as cell-based. The following applies: Proteus mirabilis, IID992, Gram -, 10^6 cells/ml.
Source text: as §1

The test system of test [6] is Proteus vulgaris IFO 3167. Briefly: MIC, aerobic bacteria. The following applies: IFO3167, Gram -, 10^6 cells/ml. The format is cell-based.
Source text: as §1

Test [7] has as its system S. aureus IID 670 (Terajima). Put plainly: MIC, aerobic bacteria. The settings on record: Staphylococcus aureus, IID670, Gram +, 10^6 cells/ml. The test is classed as cell-based.
Source text: as §1

For another test, the system named is S. epidermidis IID 866. Put plainly: MIC, aerobic bacteria. The format is cell-based. The settings on record: Staphylococcus epidermidis, IID866, Gram +, 10^6 cells/ml.
Source text: as §1

Test [8] deals with Serratia marcescens IID 618. Put plainly: MIC, aerobic bacteria. The following applies: IID618, Gram -, 10^6 cells/ml. The test is classed as cell-based.
Source text: as §1

The subject of another test is B. distasonis 8503. Briefly: MIC, anaerobic bacteria. The test is classed as cell-based. The following applies: Parabacteroides distasonis, Gram -, 10^6 cells/ml.
Source text: as §1

In another test the test system is B. fragilis 0558. Briefly: MIC, anaerobic bacteria. The test is classed as cell-based. The following applies: Bacteroides fragilis, Gram -, 10^6 cells/ml.
Source text: as §1

For a further test, the system named is B. fragilis 25285. Put plainly: MIC, anaerobic bacteria. The test is classed as cell-based. The settings on record: Bacteroides fragilis, Gram -, 10^6 cells/ml.
Source text: as §1

Another test concerns B. vulgatus KYA 29327. Put plainly: MIC, anaerobic bacteria. The test is classed as cell-based. The settings on record: Phocaeicola vulgatus, KYA29327, Gram -, 10^6 cells/ml.
Source text: as §1

Test [9] has as its system Bacteroides fragilis GM 7000. Put plainly: MIC, anaerobic bacteria. The test is classed as cell-based. The following applies: GM7000, Gram -, 10^6 cells/ml.
Source text: as §1

Test [10] relates to Fusobacterium mortiferum 4249. Briefly: MIC, anaerobic bacteria. The following applies: Gram -, 10^6 cells/ml. The format is cell-based.
Source text: as §1

A further test relates to Pst. micros UPI 5464-1. Put plainly: MIC, anaerobic bacteria. The test is classed as cell-based. The following applies: Parvimonas micra, UPI54641, Gram +, 10^6 cells/ml.
Source text: as §1

Test [11] concerns Veillonella parvula KYA 10790. Put plainly: MIC, anaerobic bacteria. The test is classed as cell-based. The settings on record: KYA10790, Gram -, 10^6 cells/ml.
Source text: as §1

The test system of test [12] is Pseudomonas aeruginosa V-1. Put plainly: MIC, aerobic bacteria. The following applies: V1.
Test [13] concerns Alcaligenes faecalis 0114002. Put plainly: MIC, aerobic bacteria.
For test [14], the system named is Eubacterium limosum KYA 8486. Briefly: MIC, anaerobic bacteria. The settings on record: KYA8486.
Another test has as its system C. ramosum. Put plainly: MIC, anaerobic bacteria. The following applies: Thomasclavelia ramosa.
The test system of test [15] is Bacillus subtilis PCI 219. Briefly: microbe, parasite or virus in culture. The settings on record: PCI219.
The subject of test [16] is Staphylococcus aureus 209 P. Briefly: microbe, parasite or virus in culture.
The next test has as its system S. aureus Smith. Briefly: microbe, parasite or virus in culture. The following applies: Staphylococcus aureus.
The subject of a further test is K. pneumoniae 1-220S. Put plainly: microbe, parasite or virus in culture. The settings on record: Klebsiella pneumoniae, 1220S.
Test [17] deals with Salmonella enteritidis IID 604. Put plainly: microbe, parasite or virus in culture. The following applies: Salmonella enterica.
Test [18] concerns Yersinia enterocolitica IID 981. Put plainly: microbe, parasite or virus in culture. The settings on record: IID981.
In another test the test system is gram-positive bacteria. The following applies: cited from earlier work.
For a further test, the system named is gram-negative bacteria. The settings on record: than that of the prior compounds (e.g. norfloxacin, ciprofloxacin); cited from earlier work.

On to `O=C(O)c1cn(C2CC2)c2cc(N3CCNCC3)c(F)cc2c1=O` [CPFX, ciprofloxacin, reference compound], for which the MIC in test [1] was 0.2 µg/mL (≈ 0.604 µM); in test [2], 0.025 µg/mL (≈ 0.0754 µM); in the test with E. coli ATCC 10536, 0.025 µg/mL (≈ 0.0754 µM); in test [3] it was no more than 0.0063 µg/mL; in test [4], 0.025 µg/mL (≈ 0.0754 µM); in test [5] it was 0.05 µg/mL (≈ 0.151 µM). Moreover, the MIC with P. mirabilis IID 992 is 0.025 µg/mL (≈ 0.0754 µM); in [6], 0.025 µg/mL (≈ 0.0754 µM); in test [7], 0.1 µg/mL (≈ 0.302 µM); against S. epidermidis IID 866 it was 0.1 µg/mL (≈ 0.302 µM); in test [8] it was 0.05 µg/mL (≈ 0.151 µM); against B. distasonis 8503 it was 6.25 µg/mL (≈ 18.9 µM). Further, the MIC was determined as 3.13 µg/mL (≈ 9.45 µM) against B. fragilis 0558; 6.25 µg/mL (≈ 18.9 µM) with B. fragilis 25285; 25 µg/mL (≈ 75.4 µM) in the test with B. vulgatus KYA 29327; 6.25 µg/mL (≈ 18.9 µM) in [9]; 3.13 µg/mL (≈ 9.45 µM) in test [10]; 0.2 µg/mL (≈ 0.604 µM) with Pst. micros UPI 5464-1. The MIC in test [11] was found to be 0.2 µg/mL (≈ 0.604 µM); in [12] it was 0.05 µg/mL (≈ 0.151 µM); in [13], 0.2 µg/mL (≈ 0.604 µM); in test [14], 3.13 µg/mL (≈ 9.45 µM); against C. ramosum it was 6.25 µg/mL (≈ 18.9 µM); in test [15] it was 0.05 µg/mL (≈ 0.151 µM). The MIC in test [16] worked out at 0.2 µg/mL (≈ 0.604 µM); against S. aureus Smith it was 0.2 µg/mL (≈ 0.604 µM); against K. pneumoniae 1-220S it was 0.05 µg/mL (≈ 0.151 µM); in test [17] it was 0.025 µg/mL (≈ 0.0754 µM); in [18], 0.05 µg/mL (≈ 0.151 µM).
For `CCn1cc(C(=O)O)c(=O)c2cc(F)c(N3CCNCC3)cc21` [norfloxacin], the “activity against gram-positive bacteria” value in the test on gram-positive bacteria (compared with gram-negative bacteria) was “fairly less than that against gram-negative bacteria”.
Regarding `CCNCC1CCN(c2c(F)cc3c(=O)c(C(=O)O)cn(CC)c3c2F)C1` (centres unmarked) [CI-934], the “activity against gram-positive bacteria” value with gram-positive bacteria (prior drugs, e.g. CI-934) is “relatively strong activity”. For the same molecule, the “activity against gram-negative bacteria” value in the test on gram-negative bacteria is “weaker activity”.
